Experimental findings from ChEMBL document CHEMBL1147273, “3-Dimethylallylindole: an antibacterial and antifungal metabolite from Monodora tenuifolia” (1986) are described below.

≈ marks a conversion by molar mass, not a printed value. Calls of active or inactive are those of the source. The rule behind the calls is not given here.

Assay [1] has as its system Candida albicans. Kind of assay: Antimicrobial activity against Candida albicans NIH B311 by towfold serial dilution method. It is filed as functional.
In a further assay the test system is Staphylococcus aureus. In words: Antimicrobial activity against Staphylococcus aureus ATCC 6538 by towfold serial dilution method. The format is functional.
In a further assay the test system is Pseudomonas aeruginosa. Kind of assay: Antimicrobial activity against Pseudomonas aeruginosa ATCC 15442 by towfold serial dilution method. The format is functional, organism-based.
The subject of the next assay is Aspergillus niger. Kind of assay: Antimicrobial activity against Aspergillus niger ATCC 16888 by towfold serial dilution method. It is filed as functional, organism-based.
In a further assay the test system is Bacillus subtilis. Kind of assay: Antimicrobial activity against Bacillus subtilis ATCC 6633 by towfold serial dilution method. It is filed as functional.
The test system of assay [2] is Candida albicans. In words: Antimicrobial activity against Candida albicans ATCC 10231 by towfold serial dilution method. The format is functional.
Another assay deals with Cryptococcus neoformans. Kind of assay: Antimicrobial activity against Cryptococcus neoformans ATCC 32264 by towfold serial dilution method. The format is functional.
A further assay deals with Saccharomyces cerevisiae. Kind of assay: Antimicrobial activity against Saccharomyces cerevisiae ATCC 9763 by towfold serial dilution method. It is filed as functional.
For the next assay, the system named is Trametes sanguinea. In words: Antimicrobial activity against Pycnoporus sanguineus ATCC 14622 by towfold serial dilution method. The format is functional.
The next assay deals with Escherichia coli. In words: Antimicrobial activity against Escherichia coli ATCC 10536 by towfold serial dilution method. The format is functional, organism-based.
Assay [3] has as its system Trichophyton mentagrophytes. Kind of assay: Antimicrobial activity against Trichophyton mentagrophytes ATCC 9172 by towfold serial dilution method. It is filed as functional.
Assay [4] deals with Mycolicibacterium smegmatis. Kind of assay: Antimicrobial activity against Mycobacterium smegmatis ATCC 607 by towfold serial dilution method. It is filed as functional.
The subject of a further assay is Helminthosporium. In words: Antimicrobial activity against Helminthosporium sp. NRRL 4671 by towfold serial dilution method. It is filed as functional.
The subject of assay [5] is Candida albicans. Kind of assay: Antimicrobial activity against Candida albicans WH by towfold serial dilution method. It is filed as functional.

Usually MIC stands for the lowest concentration found to suppress growth. High values mean a need for much substance, low ones inhibition by little substance. In the case of `CC(C)=CCc1c[nH]c2ccccc12`, the MIC against Candida albicans [1] is 25 µg/mL (≈ 135 µM); in the assay on Staphylococcus aureus, 12.5 µg/mL (≈ 67.5 µM); against Bacillus subtilis, 12.5 µg/mL (≈ 67.5 µM); with Candida albicans [2] it was 25 µg/mL (≈ 135 µM); in the assay with Cryptococcus neoformans it was 12.5 µg/mL (≈ 67.5 µM); against Saccharomyces cerevisiae, 12.5 µg/mL (≈ 67.5 µM). Further, the MIC in the assay with Trametes sanguinea came out at 12.5 µg/mL (≈ 67.5 µM); in [3], 1.56 µg/mL (≈ 8.42 µM); in assay [4], 3.12 µg/mL (≈ 16.8 µM); against Helminthosporium, 0.78 µg/mL (≈ 4.21 µM); in the assay with Candida albicans [5], 25 µg/mL (≈ 135 µM). The result in the assay with Pseudomonas aeruginosa, in the assay on Aspergillus niger and in the assay with Escherichia coli was inactive.
